This is an account of results in ChEMBL document CHEMBL1127585, “Novel 1-phenylcycloalkanecarboxylic acid derivatives are potent and selective sigma 1 ligands” (J Med Chem, 1994).

For assay [1], the target named is Sigma non-opioid intracellular receptor 1 (Rattus norvegicus) (UniProt Q9R0C9). Put plainly: Ratio between the Ki values of sigma-2 and sigma-1 receptors.
Assay [2] in a line: Ratio between the Ki values of m1 and sigma-1 receptors.
In assay [3] the target is T1, Sigma non-opioid intracellular receptor 1 (Rattus norvegicus, UniProt Q9R0C9). Put plainly: Tested for its binding affinity towards sigma-1 site in rat brain using E3H1-(+)-SKF 10047 as radioligand in rat brain. The assay is classed as tissue-based.
Assay [4] addresses Sigma 2 receptor. Put plainly: Tested for its binding affinity towards sigma-2 site in rat brain using [3H]DTG as radioligand. In kind it is tissue-based.
The target in assay [5] is T2, Muscarinic acetylcholine receptor M1 (Homo sapiens, UniProt P11229).
T2 sequence (P11229 whole entry): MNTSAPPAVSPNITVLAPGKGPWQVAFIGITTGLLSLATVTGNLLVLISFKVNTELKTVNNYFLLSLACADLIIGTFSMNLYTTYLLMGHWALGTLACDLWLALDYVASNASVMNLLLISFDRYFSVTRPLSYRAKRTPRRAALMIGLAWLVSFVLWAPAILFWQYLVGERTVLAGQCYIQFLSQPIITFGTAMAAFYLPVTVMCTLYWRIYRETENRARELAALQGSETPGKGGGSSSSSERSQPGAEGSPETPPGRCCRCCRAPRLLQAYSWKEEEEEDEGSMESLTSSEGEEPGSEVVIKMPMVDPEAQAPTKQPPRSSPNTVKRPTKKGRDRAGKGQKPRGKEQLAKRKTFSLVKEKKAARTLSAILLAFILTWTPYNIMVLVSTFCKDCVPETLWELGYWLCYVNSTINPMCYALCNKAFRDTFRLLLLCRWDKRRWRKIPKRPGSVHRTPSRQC
As to the kind of experiment: Binding affinity towards muscarinic m1 receptor.

A further assay has as its system Glutamate NMDA receptor. As to the kind of experiment: Binding affinity towards PCP (1-(1-phenylcyclohexyl)piperidine) receptor. The assay is classed as protein-complex assay.
Assay [6] deals with T3, Muscarinic acetylcholine receptor M2 (Homo sapiens, UniProt P08172).
T3 sequence (P08172 whole entry): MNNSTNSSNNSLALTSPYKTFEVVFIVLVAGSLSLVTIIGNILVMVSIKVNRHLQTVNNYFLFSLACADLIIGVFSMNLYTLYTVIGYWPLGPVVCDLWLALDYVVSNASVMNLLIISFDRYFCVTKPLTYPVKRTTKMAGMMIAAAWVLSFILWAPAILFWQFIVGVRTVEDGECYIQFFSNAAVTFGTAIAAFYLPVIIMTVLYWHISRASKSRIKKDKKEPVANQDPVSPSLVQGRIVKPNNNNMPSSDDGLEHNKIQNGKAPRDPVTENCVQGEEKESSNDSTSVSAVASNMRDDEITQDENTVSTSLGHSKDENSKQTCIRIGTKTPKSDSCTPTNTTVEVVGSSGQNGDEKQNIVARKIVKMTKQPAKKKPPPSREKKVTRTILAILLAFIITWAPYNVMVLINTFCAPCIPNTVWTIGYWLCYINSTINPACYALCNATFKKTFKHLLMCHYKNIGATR
As to the kind of experiment: Binding affinity towards muscarinic m2 receptor.

In assay [7] the target is T1, Sigma non-opioid intracellular receptor 1. Put plainly: Tested for its binding affinity towards sigma-1 site in rat brain, using [3H]DTG as radioligand. In kind it is tissue-based.
Assay [8] shares this target. Put plainly: Tested for its binding affinity towards sigma-1 site using E3H1-(+)-SKF 10047 as radioligand in rat brain. In kind it is tissue-based.
Assay [9] concerns the target Sigma 2 receptor. Put plainly: Tested for its binding affinity towards sigma-2 site using [3H]-DTG as radioligand.
For assay [10], the target named is T1, Sigma non-opioid intracellular receptor 1. Put plainly: Tested for its binding affinity towards sigma-1 site in rat brain, using [3H]-(+)-SKF- 10047 as radioligand. In kind it is tissue-based.

T1 sequence (Q9R0C9 whole entry): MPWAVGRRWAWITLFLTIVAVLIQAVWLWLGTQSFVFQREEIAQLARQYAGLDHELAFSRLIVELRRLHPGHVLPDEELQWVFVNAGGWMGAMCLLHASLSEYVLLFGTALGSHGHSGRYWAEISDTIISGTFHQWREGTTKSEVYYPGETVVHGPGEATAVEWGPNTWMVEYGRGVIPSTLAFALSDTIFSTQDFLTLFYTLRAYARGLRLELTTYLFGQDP
Chain of Sigma non-opioid intracellular receptor 1 (Rattus norvegicus) (Q9R0C9 whole entry): as above

A word on the Ki: it is the equilibrium dissociation constant of an inhibitor or competing ligand from its target. The low end stands for tighter binding, the high end for weaker binding. With `CCN(CC)CCOCCNCC1(c2ccccc2)CCCC1`, the results for the Ratio in assay [1] and in assay [2] were 1.2 and 1.9, respectively. Moreover, the Ki in assay [3] is 884 nM; on Sigma 2 receptor [4], 1100 nM; in [5] it was 1700 nM; in the assay on Glutamate NMDA receptor it was “Not Active”; in assay [6], 2270 nM.

On to `CCN(CC)CCOCOC(=O)C1(c2ccc(Cl)c(Cl)c2)CCCCC1`, for which the Ratio in [1] was found to be 30; in assay [2] it was 0.9. Moreover, the Ki is 22 nM in [3]; 667 nM at Sigma 2 receptor [4]; 20 nM in assay [5]; “Not Active” in the assay with Glutamate NMDA receptor; 22 nM in assay [6].

As for `CCN(CC)CCOCCOC(=O)C1(c2ccccc2)CC1`, the Ratio in assay [1] is 65; in [2], above 220. Moreover, the Ki in [3] was 45 nM; at Sigma 2 receptor [4] it was 2910 nM; in assay [5] it was above 10000 nM; in the assay on Glutamate NMDA receptor, “Not Active”; in [6], above 10000 nM.

For `CCN(CC)CCOCCOC(=O)C(C)c1ccccc1` (stereo unspecified), the Ratio in [1] is 78; in assay [2], above 250. For the same molecule, the Ki in assay [3] is 40 nM; on Sigma 2 receptor [4], 3110 nM; in assay [5], above 10000 nM; with Glutamate NMDA receptor, “Not Active”; in assay [6], above 10000 nM.

For `CCN(CC)CCOCCOC(=O)C1(c2ccc(Cl)cc2)CCCC1`, the Ratio in assay [1] was 27; in assay [2] it was 3.1. The inhibition constant Ki was 24 nM in assay [3]; 648 nM at Sigma 2 receptor [4]; 75 nM in assay [5]; “Not Active” in the assay with Glutamate NMDA receptor; 97 nM in assay [6].

As to `CCN(CC)CCOCCOC(=O)C1(c2ccccc2)CCCCC1`, the Ratio was determined as 23 in assay [1] and 4 in assay [2]. For the same molecule, the Ki in assay [3] was 34 nM; on Sigma 2 receptor [4] it was 780 nM; in assay [5], 135 nM; in the assay on Glutamate NMDA receptor it was “Not Active”; in assay [6], 145 nM.

In the case of `O=C(OCOCCN1CCOCC1)C1(c2ccc(Cl)c(Cl)c2)CCCCC1`, the Ratio worked out at 25 in [1] and 80 in assay [2]. Moreover, the Ki in assay [3] is 39 nM; on Sigma 2 receptor [4], 981 nM; in assay [5] it was 3110 nM; in the assay with Glutamate NMDA receptor, “Not Active”; in assay [6], 1190 nM.

In the case of `O=C(NCOCCN1CCOCC1)C1(c2ccc(Cl)c(Cl)c2)CCCCC1`, the Ratio was 51 in [1] and above 310 in assay [2]. The Ki in assay [3] was 32 nM; on Sigma 2 receptor [4] it was 1640 nM; in assay [5] it was above 10000 nM; in the assay on Glutamate NMDA receptor, “Not Active”; in assay [6] it was above 10000 nM.

Consider `CCN(CC)CCOCCN(C)CC1(c2ccccc2)CCCC1`, for which the Ratio stood at 32 in assay [1] and 25 in assay [2]. Besides, the inhibitory constant (Ki) in assay [3] is 34 nM; on Sigma 2 receptor [4], 1100 nM; in [5], 843 nM; in the assay with Glutamate NMDA receptor it was “Not Active”; in [6], 1570 nM.

Regarding `Cc1ccccc1NC(=N)Nc1ccccc1C` [DITOLYLGUANIDINE], the inhibitory constant (Ki) entry in the assay with Glutamate NMDA receptor was “Not Active”.

Take `CCN(CC)CCOCCOC(=O)C1(c2ccccc2)CCCC1` [CARBETAPENTANE]: the Ki was 76 nM in [5], “Not Active” with Glutamate NMDA receptor and 167 nM in assay [6].

In turn, `c1ccc(CCCCCNCCCCc2ccccc2)cc1` had a Ki in assay [7] of 2 nM.

As to `O=C(OCOCCN1CCCC1)C1(c2ccc(Cl)c(Cl)c2)CCCCC1`, the Ratio was determined as 22 in [1] and 2 in assay [2]. Further, the Ki in assay [3] was 32 nM; on Sigma 2 receptor [4], 688 nM; in assay [5], 63 nM; in the assay with Glutamate NMDA receptor, “Not Active”; in assay [6], 74 nM.

In the case of `CCN(CC)CCOCCOCC1(c2ccccc2)CCCC1`, the results for the Ratio in [1] and in assay [2] were 17 and 34, respectively. The Ki is 27 nM in assay [3]; 463 nM on Sigma 2 receptor [4]; 910 nM in [5]; “Not Active” with Glutamate NMDA receptor; 844 nM in [6].

For `CCN(CC)CCOCCNC(=O)C1(c2ccccc2)CCCC1`, the Ratio is 13 in assay [1] and above 46 in [2]. In addition, the Ki in [3] was 215 nM; at Sigma 2 receptor [4], 2840 nM; in assay [5] it was above 10000 nM; in the assay with Glutamate NMDA receptor it was “Not Active”; in assay [6], 4900 nM.

On to `CCN(CC)CCOCCOC(=O)C1(c2ccc(OC)cc2)CCCC1`, for which the values for the Ratio in [1] and in assay [2] were 25 and 18, respectively. The Ki in assay [3] was determined as 59 nM; at Sigma 2 receptor [4], 1500 nM; in [5], 1060 nM; in [6], 692 nM.

In the case of `C=CCN1CCC2c3cc(O)ccc3CC1C2C` (stereo unspecified), the Ki in assay [8] was 67 nM; at Sigma 2 receptor [9], 44 nM; in the assay on Glutamate NMDA receptor, “Not Active”.

`O=C(OCCN1CCOCC1)C1(c2ccccc2)CCCCC1` displayed a Ki in [10] of 44 nM.

`CCN(CC)CCOCNC(=O)C1(c2ccc(Cl)c(Cl)c2)CCCCC1`: the Ratio amounted to 20 in [1] and 22 in assay [2]. For the same molecule, the Ki in assay [3] was 27 nM; on Sigma 2 receptor [4], 527 nM; in [5], 581 nM; in the assay on Glutamate NMDA receptor, “Not Active”; in assay [6] it was 500 nM.
